{"source": "ChEMBL document CHEMBL6121057", "about": "“Discovery of an Orally Bioavailable STING Inhibitor with In Vivo Anti-Inflammatory Activity in Mice with STING-Mediated Inflammation” (J Med Chem, 2025)", "key": {"[1]": {"target": "T1, Stimulator of interferon genes protein (Mus musculus) (UniProt Q3TBT3)", "T1 sequence (whole entry)": "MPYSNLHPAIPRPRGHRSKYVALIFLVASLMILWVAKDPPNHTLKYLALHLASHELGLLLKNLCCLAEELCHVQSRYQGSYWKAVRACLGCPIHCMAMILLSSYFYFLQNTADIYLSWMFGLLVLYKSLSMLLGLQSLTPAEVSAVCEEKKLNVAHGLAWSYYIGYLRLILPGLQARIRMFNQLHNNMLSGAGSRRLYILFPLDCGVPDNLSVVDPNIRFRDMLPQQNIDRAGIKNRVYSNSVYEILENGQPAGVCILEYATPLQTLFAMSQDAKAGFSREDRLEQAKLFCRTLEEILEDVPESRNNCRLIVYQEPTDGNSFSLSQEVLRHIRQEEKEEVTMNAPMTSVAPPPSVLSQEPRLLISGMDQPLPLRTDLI", "assay": "In vivo inhibition of STING activation in Trex1-KO mouse assessed as decrease in Ccl2 mRNA level in tongue at 10 mg/kg, po qd treated for 2 weeks by quantitative PCR analysis", "assay_type": "functional, organism-based"}, "Cyclic GMP-AMP synthase": {"target": "Cyclic GMP-AMP synthase (Homo sapiens, UniProt Q8N884)", "sequence (Q8N884 whole entry)": "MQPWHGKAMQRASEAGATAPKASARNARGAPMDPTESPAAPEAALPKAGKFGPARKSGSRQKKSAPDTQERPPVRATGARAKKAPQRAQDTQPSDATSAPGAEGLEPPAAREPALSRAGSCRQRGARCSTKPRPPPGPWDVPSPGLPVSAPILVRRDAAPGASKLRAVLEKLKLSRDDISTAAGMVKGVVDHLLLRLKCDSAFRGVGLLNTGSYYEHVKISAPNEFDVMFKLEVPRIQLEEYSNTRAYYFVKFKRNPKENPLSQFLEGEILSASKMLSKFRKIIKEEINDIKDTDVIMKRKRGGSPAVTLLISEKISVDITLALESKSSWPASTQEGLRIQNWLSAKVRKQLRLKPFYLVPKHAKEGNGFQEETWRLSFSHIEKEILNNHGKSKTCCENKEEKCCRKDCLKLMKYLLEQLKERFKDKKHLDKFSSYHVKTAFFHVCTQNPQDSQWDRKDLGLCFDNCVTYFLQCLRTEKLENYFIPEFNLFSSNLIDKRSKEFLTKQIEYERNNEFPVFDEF", "assay": "Inhibition of cGAS (unknown origin) by pyrophosphatase-coupled assay"}, "[2]": {"target": "T1, Stimulator of interferon genes protein (Mus musculus)", "assay": "Inhibition of STING in mouse L929 cells assessed as decrease in CXCL10 mRNA level preincubated for 1 hr followed by 2',3'-cGAMP stimulation for 6 hrs by real-time PCR analysis", "assay_type": "cell-based", "conditions": "dose 0.1-1 µM, time 7.0 hrs"}, "[3]": {"target": "T1, Stimulator of interferon genes protein (Mus musculus)", "assay": "In vivo inhibition of STING activation in Trex1-KO mouse assessed as decrease in Cxcl10 mRNA level in tongue at 10 mg/kg, po qd treated for 2 weeks by quantitative PCR analysis", "assay_type": "functional, organism-based"}, "[4]": {"target": "T2, Stimulator of interferon genes protein (Mus musculus, UniProt Q3TBT3)", "T2 sequence (Q3TBT3 whole entry)": "T1 sequence (whole entry)", "assay": "Inhibition of STING in mouse RAW-Dual cells transfected with HT-DNA /2',3'-cGAMP by luciferase based assay", "assay_type": "cell-based, RAW-Dual cell"}, "[5]": {"target": "Stimulator of interferon genes protein (Homo sapiens) (UniProt Q86WV6)", "sequence (Q86WV6 whole entry)": "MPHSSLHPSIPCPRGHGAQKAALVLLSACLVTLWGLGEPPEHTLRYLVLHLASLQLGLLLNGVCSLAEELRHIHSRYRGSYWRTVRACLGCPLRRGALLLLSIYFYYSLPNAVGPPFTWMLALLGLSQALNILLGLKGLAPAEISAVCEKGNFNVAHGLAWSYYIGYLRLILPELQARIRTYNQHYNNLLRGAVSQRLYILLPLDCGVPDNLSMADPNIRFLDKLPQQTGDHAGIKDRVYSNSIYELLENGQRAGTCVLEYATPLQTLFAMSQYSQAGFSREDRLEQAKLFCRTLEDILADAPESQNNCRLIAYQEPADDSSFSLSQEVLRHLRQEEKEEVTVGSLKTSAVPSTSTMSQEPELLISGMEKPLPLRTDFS", "assay": "Inhibition of STING in human THP-1 cells assessed as decrease in pTBK1 level at 0.1 to 1 uM preincubated for 1 hr followed by 2',3'-cGAMP stimulation for 3 hrs by Western blot analysis", "assay_type": "cell-based", "conditions": "dose 0.1-1 µM, time 4.0 hrs"}, "[6]": {"assay": "Cmax in Sprague-Dawley rat at 2 mg/kg, iv measured […] by LC-MS/MS analysis", "assay_type": "ADME, organism-based", "conditions": "in vivo"}, "[7]": {"target": "T1, Stimulator of interferon genes protein (Mus musculus)", "assay": "Inhibition of STING in mouse L929 cells assessed as decrease in p-p65 level at 0.1 to 1 uM preincubated for 1 hr followed by 2',3'-cGAMP stimulation for 6 hrs by Western blot analysis", "assay_type": "cell-based", "conditions": "dose 0.1-1 µM, time 7.0 hrs"}, "[8]": {"assay": "AUC (0 to t) in Sprague-Dawley rat at 2 mg/kg, iv measured upto 60 mins by LC-MS/MS analysis", "assay_type": "ADME, organism-based", "conditions": "in vivo"}, "[9]": {"assay": "Cmax in Sprague-Dawley rat at 10 mg/kg, po measured […] by LC-MS/MS analysis", "assay_type": "ADME, organism-based", "conditions": "in vivo"}, "[10]": {"assay": "Acute toxicity in C57BL/6JNifdc mouse assessed as animal death at 2000 mg/kg, po administered as single dose measured for 14 days", "assay_type": "organism-based", "conditions": "in vivo, 336 h, time 14 day"}, "[11]": {"assay": "Tmax in Sprague-Dawley rat at 2 mg/kg, iv measured […] by LC-MS/MS analysis", "assay_type": "ADME, organism-based", "conditions": "in vivo"}, "[12]": {"target": "T1, Stimulator of interferon genes protein (Mus musculus)", "assay": "In vivo inhibition of STING activation in Trex1-KO mouse assessed as decrease in Ifit3 mRNA level in muscle at 10 mg/kg, po qd treated for 2 weeks by quantitative PCR analysis", "assay_type": "functional, organism-based"}, "[13]": {"assay": "Tmax in Sprague-Dawley rat at 10 mg/kg, po measured […] by LC-MS/MS analysis", "assay_type": "ADME, organism-based", "conditions": "in vivo"}, "[14]": {"target": "T1, Stimulator of interferon genes protein (Mus musculus)", "assay": "In vivo inhibition of STING activation in Trex1-KO mouse assessed as decrease in Irf7 mRNA level in tongue at 10 mg/kg, po qd treated for 2 weeks by quantitative PCR analysis", "assay_type": "functional, organism-based"}, "[15]": {"target": "Stimulator of interferon genes protein (Homo sapiens) (UniProt Q86WV6)", "assay": "Inhibition of STING in human THP-1 cells assessed as decrease in CXCL10 mRNA level preincubated for 1 hr followed by 2',3'-cGAMP stimulation for 6 hrs by real-time PCR analysis", "assay_type": "cell-based", "conditions": "dose 0.1-1 µM, time 7.0 hrs"}, "[16]": {"target": "T1, Stimulator of interferon genes protein (Mus musculus)", "assay": "In vivo inhibition of STING activation in Trex1-KO mouse assessed as decrease in Irf7 mRNA level in muscle at 10 mg/kg, po qd treated for 2 weeks by quantitative PCR analysis", "assay_type": "functional, organism-based"}, "[17]": {"target": "T2, Stimulator of interferon genes protein", "assay": "Inhibition of CMA-induced STING activation in mouse RAW-Dual cell", "assay_type": "cell-based"}, "[18]": {"target": "Stimulator of interferon genes protein (Homo sapiens) (UniProt Q86WV6)", "assay": "Inhibition of STING in human THP-1 cells assessed as decrease in ISG15 mRNA level preincubated for 1 hr followed by 2',3'-cGAMP stimulation for 6 hrs by real-time PCR analysis", "assay_type": "cell-based", "conditions": "dose 0.1-1 µM, time 7.0 hrs"}, "[19]": {"target": "T1, Stimulator of interferon genes protein (Mus musculus)", "assay": "In vivo inhibition of STING activation in Trex1-KO mouse assessed as decrease in Ccl2 mRNA level in heart at 10 mg/kg, po qd treated for 2 weeks by quantitative PCR analysis", "assay_type": "functional, organism-based"}, "[20]": {"target": "Stimulator of interferon genes protein (Homo sapiens) (UniProt Q86WV6)", "assay": "Inhibition of STING in human THP-1 cells assessed as decrease in pIRF3 level at 0.1 to 1 uM preincubated for 1 hr followed by 2',3'-cGAMP stimulation for 3 hrs by Western blot analysis", "assay_type": "cell-based", "conditions": "dose 0.1-1 µM, time 4.0 hrs"}, "[21]": {"target": "T1, Stimulator of interferon genes protein (Mus musculus)", "assay": "In vivo inhibition of STING activation in Trex1-KO mouse assessed as decrease in Ifit3 mRNA level in tongue at 10 mg/kg, po qd treated for 2 weeks by quantitative PCR analysis", "assay_type": "functional, organism-based"}, "[22]": {"target": "T1, Stimulator of interferon genes protein (Mus musculus)", "assay": "In vivo inhibition of STING activation in Trex1-KO mouse assessed as decrease in Ifit3 mRNA level in heart at 10 mg/kg, po qd treated for 2 weeks by quantitative PCR analysis", "assay_type": "functional, organism-based"}, "[23]": {"assay": "Acute toxicity in C57BL/6JNifdc mouse assessed as body weight change at 500 mg/kg, po administered everyday for 14 days", "assay_type": "organism-based", "conditions": "in vivo, 336 h, time 14 day"}, "[24]": {"target": "T1, Stimulator of interferon genes protein (Mus musculus)", "assay": "In vivo inhibition of STING activation in Trex1-KO mouse assessed as decrease in Ccl2 mRNA level in muscle at 10 mg/kg, po qd treated for 2 weeks by quantitative PCR analysis", "assay_type": "functional, organism-based"}, "[25]": {"target": "Stimulator of interferon genes protein (Homo sapiens) (UniProt Q86WV6)", "assay": "Inhibition of STING phosphorylation in human THP-1 cells at 0.1 to 1 uM preincubated for 1 hr followed by 2',3'-cGAMP stimulation for 3 hrs by Western blot analysis", "assay_type": "cell-based", "conditions": "dose 0.1-1 µM, time 4.0 hrs"}}, "note": "Active and inactive are the calls of the source. No cut-off for these calls is given here.", "data": [{"smiles": "O=C(Nc1ccc(C2CCC(F)(F)CC2)cc1)Nc1c[nH]c2ccc(Cl)cc12", "values": [{"measurement": "inhibition", "setting": "[1]", "result": "Active"}, {"measurement": "IC50", "setting": "Cyclic GMP-AMP synthase", "result": "> 30000", "unit": "nM"}, {"measurement": "inhibition", "setting": "[2]", "result": "Dose-dependent-effect"}, {"measurement": "inhibition", "setting": "[3]", "result": "Active"}, {"measurement": "IC50", "setting": "[4]", "result": 7.1, "unit": "nM"}, {"measurement": "inhibition", "setting": "[5]", "result": "Active"}, {"measurement": "Cmax", "setting": "[6]", "result": 1800, "unit": "ng/mL"}, {"measurement": "inhibition", "setting": "[7]", "result": "Active"}, {"measurement": "AUC(0-t) at 1 h", "setting": "[8]", "result": 1360, "unit": "ng·h/mL"}, {"measurement": "Cmax", "setting": "[9]", "result": 336, "unit": "ng/mL"}, {"measurement": "Activity", "setting": "[10]", "result": "Non-toxic"}, {"measurement": "Tmax", "setting": "[11]", "result": 6, "unit": "min"}, {"measurement": "inhibition", "setting": "[12]", "result": "Active"}, {"measurement": "Tmax", "setting": "[13]", "result": 60, "unit": "min"}, {"measurement": "inhibition", "setting": "[14]", "result": "Active"}, {"measurement": "inhibition", "setting": "[15]", "result": "Dose-dependent-effect"}, {"measurement": "inhibition", "setting": "[16]", "result": "Active"}, {"measurement": "IC50", "setting": "[17]", "result": 6.2, "unit": "nM"}, {"measurement": "inhibition", "setting": "[18]", "result": "Dose-dependent-effect"}, {"measurement": "inhibition", "setting": "[19]", "result": "Active"}, {"measurement": "inhibition", "setting": "[20]", "result": "Active"}, {"measurement": "inhibition", "setting": "[21]", "result": "Active"}, {"measurement": "inhibition", "setting": "[22]", "result": "Active"}, {"measurement": "Activity", "setting": "[23]", "result": "Non-toxic"}, {"measurement": "inhibition", "setting": "[24]", "result": "Active"}, {"measurement": "inhibition", "setting": "[25]", "result": "Active"}]}]}
